Measurements: US6812247B2, “Organometallic complex” (Academia Sinica, priority 2001, dated 2004)

How the values were obtained:
[1] = tested on: double helical oligonucleotide d(ATAT)2; assay: DNA binding and cleaving mechanism with oligonucleotide, LC-mass; settings: 1:1, pH 6.0, in the dark 2.0 h
Protocol: A double helical oligonucleotide d(ATAT)2 was prepared and added to a phosphate buffer solution (pH=6.0) containing complex 1 (1:1). The solution was kept in the dark for 2.0 h. An intermediate was detected, at a yield of 57%, with a signal at 650.1 for (M+H^+) as analyzed by an electron spray ionization detector in LC-mass chromatogram. Then, the solution was irradiated with 350 nm-UV light for 2.0 h at room temperature. A product was detected with a signal at 456.1 for (M+H^+). […] Then an intramolecular cyclization took place to remove the DMSO and to form a covalent bond between the N-7 nitrogen atom and the platinum in complex 1, resulting in the oligonucleotide cleavage.

2′-deoxyguanosine = assay: Binding and cleaving mechanism with 2'-deoxyguanosine, LC-mass
Protocol: As a comparison, a reaction involving 2′-deoxyguanosine and complex 1 was carried out. […] As a result, cleavage at a guanine site required assistance from an external base (e.g., piperidine). In another experiment, an excess of complex 1 was added to a 2′-deoxyguanosine solution, followed by piperidine treatment. An intermediate was detected, at a yield of 42%, with a signal at 1063.9 for (M+H^+) as analyzed by an electron spray ionization detector in LC-mass chromatogram. The intermediate was able to give a cyclization product, at a yield of 80%, with a signal at 792.0 for (M+H^+) upon 350-nm UV light irradiation, but not in the dark. The scheme below depicts the just-described reaction: [drawing 6]

[2] = tested on: supercoiled circular φX174 RFI DNA; assay: Single-strand DNA cleavage at various pH's, 350 nm UV, agarose gel; format: biochemical; settings: complex 5.0 μM
Protocol: Cleavage at Various pH's: A reaction mixture (10 μL) containing supercoiled circular φX174 RFI DNA stock solution (50 μM/base pair), complex 1 (5.0 μM), and a phosphate buffer (0.10 M, pH 5.0, 6.0, 7.0, and 8.0) in a Pyrex vial was preincubated at 37° C. The reaction mixture was then irradiated with 350 nm UV light (32-W) for 2.0 h at room temperature. After adding a gel-loading buffer (0.25% bomophenol blue, 0.25% xylene cyanol, and 30% glycerol), the reaction mixture was loaded on a 1% agarose gel, followed by ethidium bromide staining. The gel was visualized by a 312-nm UV transilluminator and photographed by a FB-PDC-34 camera. Supercoiled circular DNA and cleaved DNA were clearly seen from the gel.

[3] = tested on: 160-bp dsDNA fragment from the 501-660 fragment of pBR322 DNA; assay: Site-specific DNA cleavage of 5'-32P-labeled fragment, polyacrylamide gel against Maxam-Gilbert markers; format: biochemical; settings: complex 20-100 μM, 350-nm UV
Protocol: A 160-bp dsDNA fragment was prepared from the 501-660 fragment of pBR322 DNA. It was amplified by the polymerase chain reaction (Bailly & Waring (1995) J. Am. Chem. Soc. 117:7311; Bailly et al. (1993) J. Am. Chem. Soc. 115:3784; and Sayers & Waring (1993) Biochemistry 32:9094), and labeled at the 5′-terminus with γ-[^32P]-ATP and T4 polynucleotide kinase. A reaction mixture containing a 5′-terminus labeled ^32P-DNA solution, a phosphate buffer (0.10 M, pH 6.0), and complex 1 (20-100 μM) in a Pyrex vial was preincubated at 37° C. for 30 min. The reaction mixture was irradiated with 350-nm UV light under aerobic conditions for 2.0 h at room temperature. The bound metal complexes on DNA fragments were removed by using 0.30 N NaCN (pH=11) at 37° C. for 8.0 h (Schwartz et al. (1990) J. Am. Chem. Soc. 112:3673; and Zou et al. (1994) Biochemistry 33:5404). The reaction mixture was then quenched with either a gel-loading buffer or 95% ethanol. […] The samples and the Maxam-Gilbert markers were analyzed using 10% polyacrylamide/8.0 M urea gel. […] Quantitation of relative intensities of DNA fragments was performed using a Microtek scanner and NIH 1.60 image program.
The detected DNA fragments were compared with Maxam-Gilbert markers on an autoradiogram, and quantitated by a computer-assisted program.

[4] = tested on: supercoiled circular φX174 RFI DNA; assay: Single-strand DNA cleavage at various complex concentrations, 350 nm UV, agarose gel; format: biochemical; settings: for % form I (supercoiled circular DNA) / % form II (cleaved DNA) / (% form II)/(% form I): pH 6.0
Protocol: The mixture was irradiated with 350 nm UV light (32-W) for 2.0 h at room temperature. After adding a gel-loading buffer (0.25% bromophenol blue, 0.25% xylene cyanol, and 30% glycerol), the reaction mixture was loaded on a 1% agarose gel, followed by ethidium bromide staining. The gel was visualized by a 312-nm UV transilluminator and photographed by a FB-PDC-34 camera. Supercoiled circular DNA (form I) and cleaved DNA (form II) were clearly seen from the gel.

[5] = complex 1.0 μM, 350 nm UV 2.0 h
[6] = complex 2.5 μM, 350 nm UV 2.0 h
[7] = complex 5.0 μM, 350 nm UV 2.0 h

C[S+](C)(=O)[Pt]1([Cl])[O][n+]2ccccc2[S]1 (centres unmarked) [complex 1, PtCl(DMSO)[η^2—C5H4SN(O)]]
binding site on nucleic acid [1]: bound to the C-6 amino on an adenine | yield of complex-bound intermediate [1]: 57% | binding site on nucleic acid (2′-deoxyguanosine): bound to the C-2 amino on a guanine | yield of cyclization product from intermediate (2′-deoxyguanosine; 350-nm UV light irradiation, not in the dark): 80% | yield of complex-bound intermediate (2′-deoxyguanosine; excess of complex 1, piperidine treatment): 42% | DNA forms seen on gel ([2]; pH 5.0, 6.0, or 7.0, 350 nm UV 2.0 h): only cleaved DNA was observed | DNA forms seen on gel ([2]; pH 8.0, 350 nm UV 2.0 h): both supercoiled circular DNA and cleaved DNA were observed | site of DNA cleavage ([3]; with hot piperidine treatment): cleaved DNA at purine residues | site of DNA cleavage ([3]; without piperidine treatment): at adenine residues | % form I (supercoiled circular DNA) [4, 5]: 37% | % form II (cleaved DNA) [4, 5]: 63% | (% form II)/(% form I) [4, 5]: 1.7 | % form I (supercoiled circular DNA) [4, 6]: 20% | % form II (cleaved DNA) [4, 6]: 80% | (% form II)/(% form I) [4, 6]: 4.0 | % form I (supercoiled circular DNA) [4, 7]: 7.1% | % form II (cleaved DNA) [4, 7]: 93% | (% form II)/(% form I) [4, 7]: 13 | % form I (supercoiled circular DNA) ([4]; complex 500 μM, in the dark): 93% | % form II (cleaved DNA) ([4]; complex 500 μM, in the dark): 7.0% | (% form II)/(% form I) ([4]; complex 500 μM, in the dark): 0.070 | DNA cleaving activity ([4]; concentration as low as 1.0 μM): very strong DNA cleaving activity | cleavage of single-strand DNA ([4]; in the dark): did not occur
